For data set [1], the target named is T1, Sirt2 (Homo sapiens, UniProt Q8IXJ6).
T1 construct: made in house
T1 sequence (Q8IXJ6 1-389): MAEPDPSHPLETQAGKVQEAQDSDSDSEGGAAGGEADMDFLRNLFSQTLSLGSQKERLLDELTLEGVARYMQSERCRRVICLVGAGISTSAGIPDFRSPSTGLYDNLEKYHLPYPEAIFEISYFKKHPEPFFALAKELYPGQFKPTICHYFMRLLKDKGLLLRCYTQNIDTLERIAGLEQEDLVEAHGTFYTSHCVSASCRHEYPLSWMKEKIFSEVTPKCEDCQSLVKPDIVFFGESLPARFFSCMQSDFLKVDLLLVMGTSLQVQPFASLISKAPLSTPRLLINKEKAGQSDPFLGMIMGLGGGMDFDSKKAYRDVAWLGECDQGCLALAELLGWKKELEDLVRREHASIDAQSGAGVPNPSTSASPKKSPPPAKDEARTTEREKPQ
Put plainly: HPLC delipoylation assay of lipoylated peptides with Sirt2. The following applies: Sirt2 + NAD+, 37° C., monitored at 280 nm after 40 min. The format is biochemical. As for the experimental part:
A total of 11 lipoylated peptides (KAlip-1 to KAlip-11) were synthesised. The peptide sequences were selected from proteins that have been reported as being lipoylated (PDH, KDH, BCKDH, and GCV) and non-lipoylated proteins (e.g., histone). The peptides were synthesized with a standard Fmoc solid phase synthesis approach and characterized by LC-MS. The delipoylation activity was then determined by an HPLC assay. Compared with non-putative peptides, putative lipoylated peptides appeared to be more efficiently hydrolyzed by Sirt2. For example, the delipoylated product of KAlip-1 (derived from histone) after 40 min was determined to be 59%, which is less than that of putative lipoylated substrates such as KAlip-5 and KAlip-6 (derived from PDH).
The lipoylated peptides KAlip-1 to -11 were incubated with sirtuin and cofactor NAD+ at 37° C. in 20 mM HEPES buffer (pH 8.0) containing 150 mM NaCl, 1 mM MgCl2, and 2.7 mM KCl. The reaction volume was set to 50 μL. At each specific reaction time point, the reaction mixtures were quenched by adding 250 μL of methanol. The reactions were vortexed and centrifuged. Supernatant was collected and then analysed by reverse phase HPLC. The new peak generated was collected for ESI-MS or MALDI-TOF-MS analysis directly.

In data set [2] the target is T1, Sirt2. Nature of the data set: In-gel fluorescence photo-crosslinking labelling of recombinant Sirt2. In kind it is binding. The following applies: competition with probe KPlip. The method, then:
The labelling efficiency of KPlip with recombinant Sirt2 was investigated. The Sirt2 enzyme was first incubated with either KPlip or a negative control probe, KPlip-C(lacking lipoylation), followed by 15 min of UV irradiation. Following click chemistry with rhodamine azide (Rh—N3), the reaction mixtures were resolved by SDS-PAGE and analysed by in-gel fluorescence scanning.
A further selectivity study was performed. […] To examine whether lipoic acid of KPlip forms a disulfide bond with cysteine residues in Sirt2, excessive reducing reagent TCEP was added to the solution containing Sirt2 and KPlip prior to UV irradiation.
20 μM azide reagent was added to the protein samples labelled by KPlip and KPlip-C. Tris(2-carboxyethyl)phosphine (0.4 mM), tris(3-hydroxypropyltriazolylmethyl)amine (40 μM), and CuSO 4 (0.4 mM) were then added. The reaction was kept at room temperature for 2 h.
After click chemistry reaction with rhodamine-azide, chilled acetone was added to the reaction mixtures. The reaction was then placed in a −20° C. freezer for 1 h to precipitate the proteins. The pellets were washed with cold methanol and air-dried. Finally, they were redissolved in 1×SDS loading buffer by heating at 95° C. for 10 min and then resolved by SDS-PAGE. The labelled proteins were visualized using a FLA-9000 Fujifilm scanner (Ex=532 nm).

Substrate in data set [3]: CC(C)[C@H](N)C(=O)N[C@@H](CCC(N)=O)C(=O)N[C@@H](CO)C(=O)N[C@@H](CC(=O)O)C(=O)N[C@@H](CCCCNC(=O)CCCCC1CCSS1)C(=O)N[C@@H](C)C(=O)N[C@@H](CO)C(=O)N[C@H](C(=O)N[C@H](C(=O)N[C@@H](Cc1c[nH]c2ccccc12)C(=O)N[C@@H](Cc1c[nH]c2ccccc12)C(=O)O)[C@@H](C)O)C(C)C
Nature of the data set: Steady-state kinetic study of lipoylated peptides with Sirt2 (HPLC). The format is biochemical. The following applies: other: Sirt2, 400 μM NAD+, HEPES pH 8.0, 37° C. As for the experimental part: (§1) The delipoylation activity of HDAC8 was further examined using KAlip-5 and KAlip-1. […] A more detailed assessment of the enzymatic delipoylation reaction was performed. Time-dependent experiments and steady-state kinetics studies were conducted of KAlip-1, 5, 8, and 10 with Sirt2 (Table 1).
(§2) To determine the values of kcat, and Km, purified Sirt2 with 400 μM NAD+ was incubated with different concentrations of lipoylated peptide (0-120 μM) in 20 mM HEPES buffer (pH 8.0) containing 150 mM NaCl, 1 mM MgCl2, and 2.7 mM KCl at 37° C. for 10 min (KAlip-1 and KAlip-10) or 5 min (KAlip-5 and KAlip-8). The reactions were quenched by adding 250 μL of methanol and then applied for HPLC analysis with a linear gradient of 5% to 85% B (acetonitrile) for 30 min. The generated delipoylated product was quantified based on the peak area monitored at 280 nm. The kcat, and Km, values were calculated by curve-fitting Vinitiai/[E] versus [S]. The experiments were conducted in duplicate.

Substrate in data set [4]: CC[C@H](C)[C@H](NC(=O)[C@@H](NC(=O)[C@H](C)NC(=O)[C@H](CCCCNC(=O)CCCCC1CCSS1)NC(=O)[C@H](CC(=O)O)NC(=O)[C@@H](NC(=O)[C@H](CCC(=O)O)NC(=O)[C@@H](NC(=O)[C@@H](N)CCC(=O)O)[C@@H](C)CC)[C@@H](C)O)[C@@H](C)O)C(=O)NCC(=O)N[C@@H](Cc1c[nH]c2ccccc12)C(=O)N[C@@H](Cc1c[nH]c2ccccc12)C(=O)O
The description is as above. The format is biochemical. The following applies: other: Sirt2, 400 μM NAD+, HEPES pH 8.0, 37° C. The method, then: as §1, §2

Substrate in data set [5]: CSCC[C@H](NC(=O)[C@H](C)NC(=O)[C@H](CCC(=O)O)NC(=O)[C@@H](N)C(C)C)C(=O)N[C@@H](CCCCNC(=O)CCCCC1CCSS1)C(=O)N[C@@H](CC(C)C)C(=O)N[C@@H](CCSC)C(=O)N[C@@H](CC(N)=O)C(=O)N[C@@H](CCC(=O)O)C(=O)N[C@@H](Cc1c[nH]c2ccccc12)C(=O)N[C@@H](Cc1c[nH]c2ccccc12)C(=O)O
The data set is described as above. In kind it is biochemical. The following applies: other: Sirt2, 400 μM NAD+, HEPES pH 8.0, 37° C. The method, then:
as §1, §2

Substrate in data set [6]: C[C@H](NC(=O)[C@@H](NC(=O)[C@H](CCC(N)=O)NC(=O)[C@@H](N)CCCCN)[C@@H](C)O)C(=O)N[C@@H](CCCNC(=N)N)C(=O)N[C@@H](CCCCNC(=O)CCCCC1CCSS1)C(=O)N[C@@H](CO)C(=O)N[C@H](C(=O)NCC(=O)NCC(=O)N[C@@H](Cc1c[nH]c2ccccc12)C(=O)N[C@@H](Cc1c[nH]c2ccccc12)C(=O)O)[C@@H](C)O
Described as above. In kind it is biochemical. The following applies: other: Sirt2, 400 μM NAD+, HEPES pH 8.0, 37° C. The method, then:
as §1, §2

Where a SMILES comes first, the peptide text is derived from it. The star is where a group is joined. ξ: configuration not given here. Lipoyl(6ξ) = O=C(CCCCC1CCSS1)*

Consider twelve molecules from US12146183B2, “Compound and a method for identifying a protein using said compound” (CITY UNIVERSITY OF HONG KONG, priority 2020, dated 2024).

As to `C[C@H](NC(=O)[C@@H](NC(=O)[C@H](CCC(N)=O)NC(=O)[C@@H](N)CCCCN)[C@@H](C)O)C(=O)N[C@@H](CCCNC(=N)N)C(=O)N[C@@H](CCCCNC(=O)CCCCC1CCSS1)C(=O)N[C@@H](CO)C(=O)N[C@H](C(=O)NCC(=O)NCC(=O)N[C@@H](Cc1c[nH]c2ccccc12)C(=O)N[C@@H](Cc1c[nH]c2ccccc12)C(=O)O)[C@@H](C)O` (stereo partly drawn) [KAlip-1, KQTARK(lip)STGGWW] (H-KQTARK(Lipoyl(6ξ))STGGWW-OH), the “Delipoylation product (HPLC yield of delipoylated product)” value (“Delipoylation product” below) at Sirt2 [1] is reported as 59%. Take `CC[C@H](C)[C@H](NC(=O)[C@@H](NC(=O)[C@H](C)NC(=O)[C@H](CCCCNC(=O)CCCCC1CCSS1)NC(=O)[C@H](CC(=O)O)NC(=O)[C@@H](NC(=O)[C@H](CCC(=O)O)NC(=O)[C@@H](NC(=O)[C@@H](N)CCC(=O)O)[C@@H](C)CC)[C@@H](C)O)[C@@H](C)O)C(=O)NCC(=O)N[C@@H](Cc1c[nH]c2ccccc12)C(=O)N[C@@H](Cc1c[nH]c2ccccc12)C(=O)O` (stereo partly drawn) [KAlip-5, EIETDK(lip)ATIGWW] (H-EIETDK(Lipoyl(6ξ))ATIGWW-OH): the “Delipoylation product” value on Sirt2 [1] worked out at 100%. Same read-out and setting: the figure for `CC(C)[C@H](N)C(=O)N[C@@H](CCC(N)=O)C(=O)N[C@@H](CO)C(=O)N[C@@H](CC(=O)O)C(=O)N[C@@H](CCCCNC(=O)CCCCC1CCSS1)C(=O)N[C@@H](C)C(=O)N[C@@H](CO)C(=O)N[C@H](C(=O)N[C@H](C(=O)N[C@@H](Cc1c[nH]c2ccccc12)C(=O)N[C@@H](Cc1c[nH]c2ccccc12)C(=O)O)[C@@H](C)O)C(C)C` (stereo partly drawn) [KAlip-8, VQSD K(lip)ASVTWW] (H-VQSDK(Lipoyl(6ξ))ASVTWW-OH) is 100%. Consider `CSCC[C@H](NC(=O)[C@H](C)NC(=O)[C@H](CCC(=O)O)NC(=O)[C@@H](N)C(C)C)C(=O)N[C@@H](CCCCNC(=O)CCCCC1CCSS1)C(=O)N[C@@H](CC(C)C)C(=O)N[C@@H](CCSC)C(=O)N[C@@H](CC(N)=O)C(=O)N[C@@H](CCC(=O)O)C(=O)N[C@@H](Cc1c[nH]c2ccccc12)C(=O)N[C@@H](Cc1c[nH]c2ccccc12)C(=O)O` (stereo partly drawn) [KAlip-11, VEAMK(lip)LMNE WW] (H-VEAMK(Lipoyl(6ξ))LMNEWW-OH), for which the “Delipoylation product” value on Sirt2 [1] worked out at 94%.

Turning to EALPKK(lip) TGGPWW [KAlip-9], the “Delipoylation product” value on Sirt2 [1] stood at 100%. For the molecule EIETDK(lip) TSVQWW [KAlip-7], the “Delipoylation product” value at Sirt2 [1] was 65%. For EIETDK(lip)AVVTWW [KAlip-6], on Sirt2 [1], the “Delipoylation product” value was 100%.

Turning to SDPIIK(lip)GSGTWW [KAlip-3], the “Delipoylation product” value at Sirt2 [1] was found to be 98%. Take SGASEK(lip)DIVHSGWW [KAlip-4]: in the data set with Sirt2 [1], the “Delipoylation product” value is listed as 100%. VKSK(lip)ATNL WW [KAlip-2]: the “Delipoylation product” value at Sirt2 [1] is on record as 97%. With “VQSDKlipASVT [lipoylated peptide competitor]”, the “Inhibition of KPlip labelling of Sirt2” value on Sirt2 [2] is “can be inhibited”.

B1: Sirt2 (Homo sapiens) (protein)
chain: MAEPDPSHPLETQAGKVQEAQDSDSDSEGGAAGGEADMDFLRNLFSQTLSLGSQKERLLDELTLEGVARYMQSERCRRVICLVGAGISTSAGIPDFRSPSTGLYDNLEKYHLPYPEAIFEISYFKKHPEPFFALAKELYPGQFKPTICHYFMRLLKDKGLLLRCYTQNIDTLERIAGLEQEDLVEAHGTFYTSHCVSASCRHEYPLSWMKEKIFSEVTPKCEDCQSLVKPDIVFFGESLPARFFSCMQSDFLKVDLLLVMGTSLQVQPFASLISKAPLSTPRLLINKEKAGQSDPFLGMIMGLGGGMDFDSKKAYRDVAWLGECDQGCLALAELLGWKKELEDLVRREHASIDAQSGAGVPNPSTSASPKKSPPPAKDEARTTEREKPQ
notes: made in house
Usually Km stands for the concentration of substrate that gives half-maximal velocity. Regarding B1, the Km in data set [3] was 26.2 ± 3.3 µM; in data set [4], 18.9 µM; in data set [5], 13.5 µM; in data set [6] it was 9.7 ± 0.2 µM.
